Tests used:
E. coli = experiment: dye formation from RIND VII in presence of calimycin, E. coli; assay type: cell-based, Escherichia coli (ATCC 25922); parameters: key: 0: no dye formation; +/-: faint dye formation; 1+: light dye formation; 2+: moderate dye formation; 3+: strong dye formation; 4+: very strong dye formation; details: calimycin 10^-3 molar, calcium chloride
Protocol: (§1) gram-negative bacteria Enterobacter cloacae (ATCC 23355), Escherichia coli (ATCC 25922), Proteus vulgaris (ATCC 13315), Klebsiella pneumoniae (ATCC 13883) and Pseudomonas aeruginosa (ATCC 27853), and gram-positive bacteria Staphylococcus aureus (ATCC 25923) and Streptococcus pyogenes (ATCC 19615), and brain heart infusion (BHI) broth from Difco Laboratories (Detroit, Mich.),
(§2) Bacterial suspensions were prepared by growing the cells in BHI to stationary phase overnight at 37° C. P. aeruginosa was grown with agitation. […]
(§3) TERGITOL 7 anionic surfactant was used to differentiate viable bacteria according to the prior art method. […] The amount of dye formed was then determined visually and graded as follows: 0 indicates no dye formation, +/- indicates faint dye formation, 1+ indicates light dye formation, 2+ indicates moderate dye formation, 3+ indicates strong dye formation, and 4+ indicates very strong dye formation.
(§4) Calimycin, a polyether antibiotic, was similarly used with RIND VII in the differentiation of bacteria. Assays were performed as described above, except that 25 μl of 1 molar calcium chloride solution was added to each test solution and the P. aeruginosa response was measured in the presence of 10% yeast extract as the carbon source instead of glucose. […]

P. vulgaris = experiment: dye formation from RIND VII in presence of calimycin, P. vulgaris; assay type: cell-based, Proteus vulgaris (ATCC 13315); parameters: key: 0: no dye formation; +/-: faint dye formation; 1+: light dye formation; 2+: moderate dye formation; 3+: strong dye formation; 4+: very strong dye formation; details: calimycin 10^-3 molar, calcium chloride
Protocol: as §1, §2, §3, §4

E. coli (gram -) = experiment: change in relative fluorescence with water-compatible RIND XXXV (Example 4), E. coli; assay type: cell-based, Escherichia coli (ATCC 25922); details: 37° C., without antibiotic 2539
Protocol: as §1
(§5) Bacterial suspensions were prepared by growing the cells in BHI to stationary phase overnight at 37° C. P. aeruginosa was grown with agitation. About 40 ml of overnight cultures were centrifuged, decanted and washed once with 0.05 molar potassium phosphate buffer or 0.05 molar N-2-hydroxyethylpiperazine-N'-2-ethanesulfonic acid (HEPES) buffer, pH 7.8, and resuspended in buffer.
A dispersion containing a RIND compound was prepared by dissolving RIND VII from Table II above in N,N-dimethylformamide (DMF) at 16 mg compound per ml of solvent. An aliquot (250 μl) of the resulting solution was added to 500 μl of TRITON X-100 surfactant. This mixture was then added dropwise with stirring to 25 ml of 0.05 molar HEPES buffer. A solution containing a water-compatible RIND compound XXXV was prepared by dissolving the compound (16 mg/ml) in N,N-dimethylformamide which had been acidified with a 0.1% sulfuric acid solution.
A solution was prepared from the following components: 100 μl RIND XXXV solution (16 mg/ml acidified N,N-dimethylformamide), 200 μl glucose solution (10% in water), 200 μl trimethyl-1,4-benzoquinone ETA solution (1.5 mg/ml methanol) and 10 ml HEPES buffer.
Test solutions were prepared from the following reagents: 50 μl HEPES buffer, 50 μl polyether antibiotic A23187 (free acid, 0.01 molar in methanol), 10 μl calcium chloride solution (1 molar) (serial dilutions of buffer and antibiotic were performed to obtain various antibiotic concentrations), 50 μl of the appropriate cell suspensions (E. coli, about 10^8 cells/ml and S. aureus, about 10^8 cells/ml) and 200 μl of the RIND solution. Control solutions were prepared as described in Examples 2 and 3.
(§6) Relative fluorescence was measured using a standard spectrophotometer modified to read at excitation of 540 nm and emission of 620 nm. The change (Δ) in relative fluorescence was determined after 30 minutes at 37° C. for several concentration levels of antibiotic.

[1] = tested on: viable gram-positive and gram-negative bacteria; experiment: differentiation of viable gram-positive and gram-negative bacteria (outcome in words); assay type: cell-based; details: RIND VII; calimycin 10^-3 molar
Protocol: as §1, §5
TERGITOL 7 anionic surfactant was used to differentiate viable bacteria according to the prior art method. Various concentrations of TERGITOL 7 surfactant were mixed with a 10% glucose solution (50 μl), 3-(4,5-dimethyl-2-thiazolyl)-2,5-diphenyl-2N-tetrazolium bromide (MTT) in methanol (25 μl at 5 mg/ml) or a RIND VII dispersion (1.5 ml) and phenazine methosulfate ETA (25 μl at 3 mg/ml methanol). The volume of each test solution was brought to 3 ml with potassium phosphate buffer. A cell suspension (100 μl at about 10^8 cells/ml) was then added. The solutions were incubated at 37° C. for 15 and 30 minutes in the presence of either E. coli, a gram (-) bacterium, or S. aureus, a gram (+) bacterium. The amount of dye formed was then determined visually and graded as follows: 0 indicates no dye formation, +/- indicates faint dye formation, 1+ indicates light dye formation, 2+ indicates moderate dye formation, 3+ indicates strong dye formation, and 4+ indicates very strong dye formation.
Calimycin, a polyether antibiotic, was similarly used with RIND VII in the differentiation of bacteria. Assays were performed as described above, except that 25 μl of 1 molar calcium chloride solution was added to each test solution and the P. aeruginosa response was measured in the presence of 10% yeast extract as the carbon source instead of glucose. The final concentration of calimycin in each test was 10^-3 molar.
The test solutions were prepared by adding the following, in order: 1.2 ml HEPES, 50 μl glucose solution, 1.5 ml RIND VII dispersion, 100 μl antibiotic solution, 100 μl cell suspension and 25 μl ETA solution. Cell control solutions contained all reagents except antibiotics. Background Controls consisted of both buffer and solution controls. The buffer control contained all reagents except antibiotics and cells. The solution control contained all reagents except cells.
Optical density readings (OD) were made at 635 nm at 0 minutes and after incubation at 37° C. for 30 minutes for all solutions, and the change (ΔOD) was determined. Table V below lists the results expressed as corrected percent inhibition of the reduction of RIND VII. The corrected percent inhibition was calculated by dividing the difference between ΔOD obtained from a Control test without antibiotic and the ΔOD of the test, by the ΔOD of the Control without antibiotic. All readings were corrected by subtracting readings of the appropriate background control.
as §6
Optical density measurements were obtained at 540 nm using a standard spectrophotometer and the change in optical density (ΔOD) was determined after 30 minutes at 37° C. The resulting data are shown in Table VII below for several concentrations of antibiotic. It is clear from the data that the composition of this example was useful for differentiating bacteria. […]

## CNc1ccc2oc(C[C@H]3O[C@@]4(CC[C@H]3C)O[C@H]([C@H](C)C(=O)c3ccc[nH]3)[C@H](C)C[C@H]4C)nc2c1C(=O)O [calimycin, Calimycin]
E. coli; 15 Minutes
  dye formation: 3+
E. coli; 30 Minutes
  dye formation: 4+
P. vulgaris; 15 Minutes
  dye formation: 4+
P. vulgaris; 30 Minutes
  dye formation: 4+
E. coli (gram -); antibiotic 1 × 10^-4 molar
  Δ Relative Fluorescence after 30 Min.: 2804
E. coli (gram -); antibiotic 2 × 10^-4 molar
  Δ Relative Fluorescence after 30 Min.: 2540
E. coli (gram -); antibiotic 4 × 10^-4 molar
  Δ Relative Fluorescence after 30 Min.: 2338
E. coli (gram -); antibiotic 8 × 10^-4 molar
  Δ Relative Fluorescence after 30 Min.: 2411
[1]
  inhibition of the reduction of the reducible compounds by viable gram-positive bacteria: selectively and substantially inhibits the reduction of the reducible compounds
  reductive capability of the viable gram-negative bacteria: not inhibited

From US4885239A, “Rapid differentiation of bacteria using polyether antibiotics” (Eastman Kodak Company, priority 1986, dated 1989)
